Results as given in patent publication EP1981504B1, “THIADIAZOLE DERIVATIVES FOR THE TREATMENT OF NEURO DEGENERATIVE DISEASES” (NV reMYND, priority 2006, dated 2007).
In brackets after ≈: the same amount, converted by molar mass.

Tested on: M17-SYNwt cells
Assay: α-synuclein cytotoxicity assay (LDH leakage from paraquat-treated α-synuclein over-expressing neuroblastoma cells)
Assay type: cell-based, human
Conditions: paraquat 32 mM, 40 hours, LDH release; for EC50: Homo sapiens, Neuroblastoma cell, 10 point curves in duplicate; for %I: percent inhibition of synuclein cytotoxicity at most effective concentration of test compound, relative to untreated paraquat cells
Method in brief: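 M17 neuroblastoma cells over-expressing wild-type α-synuclein were challenged with paraquat, and cytotoxicity was read as LDH release. Protection was expressed as percent reduction of paraquat-induced LDH release relative to untreated paraquat cells and control cells. Actives were retested in 10-point duplicate dose responses.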

Row | Compound | EC50 | %I
1 | CC1CN(c2nc(Cc3ccc(F)cc3)ns2)CCN1C(=O)c1cccc(C(F)(F)F)c1 (stereo not shown) [Compound 145, 1-(3-trifluoromethylbenzoyl)-4-[3-(4-fluorobenzyl)-1,2,4-thiadiazol-5-yl]-2-methylpiperazine] | 0.62 µg/mL (≈ 1.33 µM) | 60%
2 | COc1cccc(Cc2nsc(N3CCN(C(=O)c4ccc(C(C)(C)C)cc4)C(C)C3)n2)c1 (stereo not shown) [Compound 146, 1-(4-tert-butylbenzoyl)-4-[3-(3-methoxybenzyl)-1,2,4-thiadiazol-5-yl]-2-methylpiperazine] | 0.72 µg/mL (≈ 1.55 µM) | 94%
3 | CCc1ccc(C(=O)N2CCN(c3nc(Cc4ccc(C)cc4)ns3)CC2C)cc1 (stereo not shown) [Compound 147, 1-(4-ethylbenzoyl)-4-[3-(4-methylbenzyl)-1,2,4-thiadiazol-5-yl]-2-methylpiperazine] | 0.84 µg/mL (≈ 2 µM) | 88%
4 | CC1CN(c2nc(Cc3ccc(F)cc3)ns2)CCN1C(=O)c1ccccc1Br (stereo not shown) [Compound 148, 1-(2-bromobenzoyl)-4-[3-(4-fluorobenzyl)-1,2,4-thiadiazol-5-yl]-2-methylpiperazine] | 0.86 µg/mL (≈ 1.81 µM) | 56%
5 | Cc1ccc(Cc2nsc(N3CCN(C(=O)c4ccccc4F)C(C)C3)n2)cc1 (stereo not shown) [Compound 149, 1-(2-fluorobenzoyl)-4-[3-(4-methylbenzyl)-1,2,4-thiadiazol-5-yl]-2-methylpiperazine] | 0.98 µg/mL (≈ 2.39 µM) | 105%
6 | CC1CN(c2nc(Cc3ccccc3)ns2)CCN1C(=O)c1cccc(F)c1 (stereo not shown) [Compound 150, 1-(3-fluorobenzoyl)-4-[3-benzyl-1,2,4-thiadiazol-5-yl]-2-methylpiperazine] | 1.14 µg/mL (≈ 2.88 µM) | 99%
7 | Cc1ccc(Cc2nsc(N3CCN(C(=O)c4ccc(F)cc4)C(C)C3)n2)cc1 (stereo not shown) [Compound 151, 1-(4-fluorobenzoyl)-4-[3-(4-methylbenzyl)-1,2,4-thiadiazol-5-yl]-2-methylpiperazine] | 1.14 µg/mL (≈ 2.78 µM) | 73%
8 | Cc1ccccc1C(=O)N1CCN(c2nc(Cc3ccc(F)cc3)ns2)CC1 [Compound 152, 1-(2-methylbenzoyl)-4-[3-(4-fluorobenzyl)-1,2,4-thiadiazol-5-yl]piperazine] | 1.15 µg/mL (≈ 2.9 µM) | 66%
9 | O=C(c1ccc(F)cc1)N1CCN(c2nc(Cc3ccc(Cl)cc3)ns2)CC1 [Compound 153, 1-(4-fluorobenzoyl)-4-[3-(4-chlorobenzyl)-1,2,4-thiadiazol-5-yl]piperazine] | 1.44 µg/mL (≈ 3.45 µM) | 53%
10 | CC1CN(c2nc(Cc3ccccc3)ns2)CCN1C(=O)c1ccc(F)cc1 (stereo not shown) [Compound 154, 1-(4-fluorobenzoyl)-4-[3-benzyl-1,2,4-thiadiazol-5-yl]-2-methylpiperazine] | 1.58 µg/mL (≈ 3.98 µM) | 75%
11 | Cc1ccc(Cc2nsc(N3CCN(C(=O)c4ccc(Cl)cc4)CC3)n2)cc1 [Compound 155, 1-(4-chlorobenzoyl)-4-[3-(4-methylbenzyl)-1,2,4-thiadiazol-5-yl]piperabine] | 1.64 µg/mL (≈ 3.97 µM) | 76%
12 | Cc1ccc(Cc2nsc(N3CCN(C(=O)c4cccc(F)c4)C(C)C3)n2)cc1 (stereo not shown) [Compound 156, 1-(3-fluorobenzoyl)-4-[3-(4-methylbenzyl)-1,2,4-thiadiazol-5-yl]-2-methylpiperazine] | 1.67 µg/mL (≈ 4.07 µM) | 86%
13 | O=C(c1cccc(F)c1)N1CCN(c2nc(Cc3ccc(Cl)cc3)ns2)CC1 [Compound 157, 1-(3-fluorobenzoyl)-4-[3-(4-chlorobenzyl)-1,2,4-thiadiazol-5-yl]piperazine] | 1.7 µg/mL (≈ 4.08 µM) | 70%
14 | Cc1ccc(Cc2nsc(N3CCN(C(=O)c4ccccc4)CC3)n2)cc1 [Compound 158, 1-benzoyl-4-[3-(4-methylbenzyl)-1,2,4-thiadiazol-5-yl]piperazine] | 2.1 µg/mL (≈ 5.55 µM) | 57%
15 | O=C(c1ccccc1F)N1CCN(c2nc(Cc3ccc(Cl)cc3)ns2)CC1 [Compound 159, 1-(2-fluorobenzoyl)-4-[3-(4-chlorobenzyl)-1,2,4-thiadiazol-5-yl]piperazine] | 2.85 µg/mL (≈ 6.84 µM) | 48%
16 | Cc1ccc(Cc2nsc(N3CCN(C(=O)c4ccc(F)cc4)CC3)n2)cc1 [Compound 160, 1-(4-fluorobenzoyl)-4-[3-(4-methylbenzyl)-1,2,4-thiadiazol-5-yl]piperazine] | 2.87 µg/mL (≈ 7.24 µM) | 88%
17 | Cc1ccc(Cc2nsc(N3CCN(C(=O)c4ccc5c(c4)OCO5)C(C)C3)n2)cc1 (stereo not shown) [Compound 161, 1-(1,3-benzodioxol-5-ylcarbonyl)-4-[3-(4-methylbenzyl)-1,2,4-thiadiazol-5-yl]-2-methyl+B176piperazine] | 3.36 µg/mL (≈ 7.7 µM) | 101%
18 | Cc1ccc(Cc2nsc(N3CCN(C(=O)c4cccc(F)c4)CC3)n2)cc1 [Compound 162, 1-(3-flurorbenzoyl)-4-[3-(4-methylbenzyl)-1,2,4-thiadiazol-5-yl]piperazine] | 3.4 µg/mL (≈ 8.58 µM) | 101%
19 | O=C(c1ccc(F)cc1)N1CCN(c2nc(Cc3ccccc3)ns2)CC1 [Compound 163, 1-(4-fluorobenzoyl)-4-[3-benzyl-1,2,4-thiadiazol-5-yl]piperazine] | 3.61 µg/mL (≈ 9.44 µM) | 67%

Row | Compound | EC50 | %I
20 | Cc1ccc(Cc2nsc(N3CCN(C(=O)c4ccc(Br)cc4)CC3)n2)cc1 [Compound 164, 1-(4-bromobenzoyl)-4-[3-(4-methylbenzyl)-1,2,4-thiadiazol-5-yl]piperazine] | 3.86 µg/mL (≈ 8.44 µM) | 60%
21 | CCc1ccc(C(=O)N2CCN(c3nc(Cc4ccc(Cl)cc4)ns3)CC2)cc1 [Compound 165, 1-(4-ethylbenzoyl)-4-[3-(4-chlorobenzyl)-1,2,4-thiadiazol-5-yl]piperazine] |  | 133%
22 | CC1CN(c2nc(Cc3ccc(F)cc3)ns2)CCN1C(=O)c1ccccc1Cl (stereo not shown) [Compound 166, 1-(2-chlorobenzoyl)-4-[3-(4-fluorobenzyl)-1,2,4-thiadiazol-5-yl]-2-methylpiperazine] |  | 123%
23 | CC1CN(c2nc(Cc3ccc(Cl)cc3)ns2)CCN1C(=O)c1ccccc1F (stereo not shown) [Compound 167, 1-(2-fluorobenzoyl)-4-[3-(4-chlorobenzyl)-1,2,4-thiadiazol-5-yl]-2-methylpiperazine] |  | 117%
24 | COc1cccc(Cc2nsc(N3CCN(C(=O)c4ccc(C(F)(F)F)cc4)C(C)C3)n2)c1 (stereo not shown) [Compound 168, 1-(4-trifluoromethylbenzoyl)-4-[3-(3-methoxybenzyl)-1,2,4-thiadiazol-5-yl]-2-methylpiperazine] |  | 91%
25 | Cc1ccc(Cc2nsc(N3CCN(C(=O)c4ccccc4)C(C)C3)n2)cc1 (stereo not shown) [Compound 169, 1-benzoyl-4-[3-(4-methylbenzyl)-1,2,4-thiadiazol-5-yl]-2-methylpiperazine] |  | 91%
26 | COc1cccc(Cc2nsc(N3CCN(C(=O)c4ccc(Br)cc4)C(C)C3)n2)c1 (stereo not shown) [Compound 170, 1-(4-bromobenzoyl)-4-[3-(3-methoxybenzyl)-1,2,4-thiadiazol-5-yl]-2-methylpiperazine] |  | 89%
27 | Cc1ccc(Cc2nsc(N3CCN(C(=O)c4ccc(C(F)(F)F)cc4)CC3)n2)cc1 [Compound 171, 1-(4-trifluoromethylbenzoyl)-4-[3-(4-methylbenzyl)-1,2,4-thiadiazol-5-yl]piperazine] |  | 86%
28 | Cc1ccc(C(=O)N2CCN(c3nc(Cc4ccc(F)cc4)ns3)CC2C)cc1[N+](=O)[O-] (stereo not shown) [Compound 172, 1-(3-nitro-4-methylbenzoyl)-4-[3-(4-fluorobenzyl)-1,2,4-thiadiazol-5-yl]-2-methylpiperazine] |  | 86%
29 | COc1cccc(Cc2nsc(N3CCN(C(=O)c4ccccc4)C(C)C3)n2)c1 (stereo not shown) [Compound 173, 1-benzoyl-4-[3-(3-methoxybenzyl)-1,2,4-thiadiazol-5-yl]-2-methylpiperazine] |  | 85%
30 | COc1cccc(Cc2nsc(N3CCN(C(=O)c4ccc(Cl)cc4)C(C)C3)n2)c1 (stereo not shown) [Compound 174, 1-(4-chlorobenzoyl)-4-[3-(3-methoxybenzyl)-1,2,4-thiadiazol-5-yl]-2-methylpiperazine] |  | 83%
31 | Cc1ccc(Cc2nsc(N3CCN(C(=O)c4ccccc4F)CC3)n2)cc1 [Compound 175, 1-(2-fluorobenzoyl)-4-[3-(4-methylbenzyl)-1,2,4-thiadiazol-5-yl]piperazine] |  | 78%
32 | CCCCCCc1ccc(C(=O)N2CCN(c3nc(Cc4ccc(C)cc4)ns3)CC2)cc1 [Compound 176, 1-(4-hexylbenzoyl)-4-[3-(4-methylbenzyl)-1,2,4-thiadiazol-5-yl]piperazine] |  | 77%
33 | CC1CN(c2nc(Cc3ccc(F)cc3)ns2)CCN1C(=O)c1ccc([N+](=O)[O-])cc1Cl (stereo not shown) [Compound 177, 1-(2-chloro-4-nitrobenzoyl)-4-[3-(4-fluorobenzyl)-1,2,4-thiadiazol-5-yl]-2-methylpiperazine] |  | 77%
34 | CC1CN(c2nc(Cc3ccc(F)cc3)ns2)CCN1C(=O)c1ccc2c(c1)OCO2 (stereo not shown) [Compound 178, 1-(1,3-benzodioxol-5-ylcarbonyl)-4-[3-(4-fluorobenzyl)-1,2,4-thiadiazol-5-yl]-2-methylpiperazine] |  | 68%
35 | CC1CN(c2nc(Cc3ccc(F)cc3)ns2)CCN1C(=O)c1cccc(F)c1 (stereo not shown) [Compound 179, 1-(3-fluorobenzoyl)-4-[3-(4-fluorobenzyl)-1,2,4-thiadiazol-5-yl]-2-methylpiperazine] |  | 68%
36 | CC(C)(C)c1ccc(C(=O)N2CCN(c3nc(Cc4ccc(F)cc4)ns3)CC2)cc1 [Compound 180, 1-(4-tert-butylbenzoyl)-4-[3-(4-fluorobenzyl)-1,2,4-thiadiazol-5-yl]piperazine] |  | 62%
37 | O=C(c1ccccc1)N1CCN(c2nc(Cc3ccc(F)cc3)ns2)CC1 [Compound 181, 1-benzoyl-4-[3-(4-fluorobenzyl)-1,2,4-thiadiazol-5-yl]piperazine] |  | 60%
38 | CCCCc1ccc(C(=O)N2CCN(c3nc(Cc4ccc(C)cc4)ns3)CC2)cc1 [Compound 182, 1-(4-butylbenzoyl)-4-[3-(4-methylbenzyl)-1,2,4-thiadiazol-5-yl]piperazine] |  | 57%
